Reference: ChEMBL document CHEMBL5385906, “Discovery of a Potent, Selective, and Orally Bioavailable Tool Compound for Probing the Role of Lysophosphatidic Acid Type 2 Receptor Antagonists in Fibrotic Disorders” (J Med Chem, 2023)

Assays:
[1] = molecular target: T1, Lysophosphatidic acid receptor 2 (Mus musculus, UniProt Q9JL06); experiment: Antagonist activity at mouse LPA2 receptor expressed in HeLa cells assessed as inhibition of LPA-induced calcium mobilization pretreated for 15 mins followed by LPA stimulation by FLIPR analysis; format: functional, cell-based
[2] = Efflux ratio of apparent permeability across apical to basolateral to basolateral to apical side in human Caco-2 cells at 10 uM measured after 60 mins by LC-MS/MS analysis
[3] = Protein binding in human plasma assessed as fraction unbound at 0.5 uM measured after 5 hrs by LC-MS/MS analysis
[4] = Protein binding in mouse plasma assessed as fraction unbound at 0.5 uM measured after 5 hrs by LC-MS/MS analysis
[5] = Protein binding in mouse lungs assessed as fraction unbound at 5 uM measured after 5 hrs by LC-MS/MS analysis
[6] = Half life in C57BL/6J mouse at 5 mg/kg, po or 4 mg/kg, iv by UPLC-MS/MS analysis; conditions: in vivo
[7] = Apparent permeability across apical to basolateral side in human Caco-2 cells at 10 uM measured after 60 mins by LC-MS/MS analysis
[8] = Apparent permeability across basolateral to apical side in human Caco-2 cells at 10 uM measured after 60 mins by LC-MS/MS analysis
[9] = molecular target: Lysophosphatidic acid receptor 2 (Homo sapiens, UniProt Q9HBW0)
Description: Antagonist activity at human LPA2 receptor expressed in CHO cells assessed as inhibition of LPA-induced calcium mobilization pretreated for 15 mins followed by LPA stimulation by FLIPR analysis

[10] = molecular target: T1, Lysophosphatidic acid receptor 2
Description: Antagonist activity at LPA2 receptor expressed in C57BL/6 mouse primary alveolar epithelial cells assessed as inhibition of LPA-induced calcium mobilization pretreated for 15 mins followed by LPA stimulation by FLIPR analysis

[11] = molecular target: Lysophosphatidic acid receptor 1 (Homo sapiens, UniProt Q92633)
Description: Antagonist activity at human LPA1 receptor expressed in CHO cells assessed as inhibition of LPA-induced calcium mobilization pretreated for 15 mins followed by LPA stimulation by FLIPR analysis

[12] = molecular target: T2, Lysophosphatidic acid receptor 3 (Homo sapiens, UniProt Q9UBY5)
T2 sequence (Q9UBY5 whole entry): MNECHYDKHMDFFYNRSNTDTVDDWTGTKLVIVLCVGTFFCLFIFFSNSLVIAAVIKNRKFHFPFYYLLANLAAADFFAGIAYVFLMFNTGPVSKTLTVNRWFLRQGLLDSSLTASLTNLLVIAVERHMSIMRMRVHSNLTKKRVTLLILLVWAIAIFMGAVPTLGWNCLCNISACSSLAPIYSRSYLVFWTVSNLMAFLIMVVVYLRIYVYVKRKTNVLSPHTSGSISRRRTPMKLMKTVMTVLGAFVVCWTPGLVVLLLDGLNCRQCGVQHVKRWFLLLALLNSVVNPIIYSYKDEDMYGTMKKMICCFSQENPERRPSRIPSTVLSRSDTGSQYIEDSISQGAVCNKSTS
Description: Antagonist activity at human LPA3 receptor expressed in HeLa cells assessed as inhibition of LPA-induced calcium mobilization pretreated for 15 mins followed by LPA stimulation by FLIPR analysis

[13] = molecular target: Lysophosphatidic acid receptor 4 (Homo sapiens, UniProt Q99677)
[14] = molecular target: Lysophosphatidic acid receptor 5 (Homo sapiens, UniProt Q9H1C0)
Description: Antagonist activity at human LPA5 receptor expressed in HeLa cells assessed as inhibition of LPA-induced calcium mobilization pretreated for 15 mins followed by LPA stimulation by FLIPR analysis

[15] = in vivo; conditions: C57BL/6J, mouse, po, 5 mg/kg
Description: Oral bioavailability in C57BL/6J mouse at 5 mg/kg by UPLC-MS/MS analysis

[16] = in vitro; conditions: human, liver microsomes, CLH
Description: Intrinsic clearance in human liver microsomes at 0.5 uM in presence of NADPH regenerating system measured for 45 mins per mg protein by LC-MS/MS analysis

[17] = in vitro; conditions: C57BL/6J, mouse, liver microsomes
Description: Intrinsic clearance in C57BL/6J mouse liver microsomes at 0.5 uM in presence of NADPH regenerating system measured for 45 mins per mg protein by LC-MS/MS analysis

[18] = in vivo; conditions: C57BL/6J, mouse, po, 26.5 mg/kg
Description: Half life in C57BL/6J mouse at 26.5 mg/kg, po and 2 mg/kg, iv by LC-MS/MS analysis

[19] = in vivo; conditions: C57BL/6J, mouse, po, 26.5 mg/kg; remark: listed apart in the source
Description: Oral absorption in C57BL/6J mouse at 26.5 mg/kg by LC-MS/MS analysis

[20] = in vivo; conditions: C57BL/6J, mouse, po, 26.5 mg/kg; remark: listed apart in the source
Description: Oral bioavailability in C57BL/6J mouse at 26.5 mg/kg by LC-MS/MS analysis

[21] = in vivo; conditions: C57BL/6J, mouse, plasma, po, 26.5 mg/kg
Description: Total Cmax in C57BL/6J mouse plasma at 26.5 mg/kg, po and 2 mg/kg, iv by LC-MS/MS analysis

[22] = in vivo; conditions: C57BL/6J, mouse, plasma, po, 26.5 mg/kg; remark: listed apart in the source
Description: Total AUC last in C57BL/6J mouse plasma at 26.5 mg/kg, po and 2 mg/kg, iv by LC-MS/MS analysis

[23] = in vivo; conditions: C57BL/6J, mouse, lung, po, 26.5 mg/kg
Description: Total Cmax in C57BL/6J mouse lungs at 26.5 mg/kg, po and 2 mg/kg, iv by LC-MS/MS analysis

[24] = in vivo; conditions: C57BL/6J, mouse, lung, po, 26.5 mg/kg; remark: listed apart in the source
Description: Total AUC last in C57BL/6J mouse lungs at 26.5 mg/kg, po and 2 mg/kg, iv by LC-MS/MS analysis

[25] = Clearance in C57BL/6J mouse at 1.4 mg/kg, iv by UPLC-MS/MS analysis; conditions: in vivo
[26] = in vivo; conditions: C57BL/6J, mouse, po, 24.3 mg/kg
Description: Half life in C57BL/6J mouse at 24.3 mg/kg, po and 1.4 mg/kg, iv by UPLC-MS/MS analysis

[27] = in vivo; conditions: C57BL/6J, mouse, po, 24.3 mg/kg; remark: listed apart in the source
Description: Oral absorption in C57BL/6J mouse at 24.3 mg/kg by UPLC-MS/MS analysis

[28] = in vivo; conditions: C57BL/6J, mouse, po, 24.3 mg/kg; remark: listed apart in the source
Description: Oral bioavailability in C57BL/6J mouse at 24.3 mg/kg by UPLC-MS/MS analysis

[29] = in vivo; conditions: C57BL/6J, mouse, plasma, po, 24.3 mg/kg
Description: Total Cmax in C57BL/6J mouse plasma at 24.3 mg/kg, po and 1.4 mg/kg, iv by UPLC-MS/MS analysis

[30] = in vivo; conditions: C57BL/6J, mouse, plasma, po, 24.3 mg/kg; remark: listed apart in the source
Description: Total AUClast in C57BL/6J mouse plasma at 24.3 mg/kg, po and 1.4 mg/kg, iv by UPLC-MS/MS analysis

[31] = in vivo; conditions: C57BL/6J, mouse, lungs, po, 24.3 mg/kg
Description: Total Cmax in C57BL/6J mouse lungs at 24.3 mg/kg, po and 1.4 mg/kg, iv by UPLC-MS/MS analysis

[32] = in vivo; conditions: C57BL/6J, mouse, lungs, po, 24.3 mg/kg; remark: listed apart in the source
Description: Total AUClast in C57BL/6J mouse lungs at 24.3 mg/kg, po and 1.4 mg/kg, iv by UPLC-MS/MS analysis

[33] = in vivo; conditions: C57BL/6J, mouse, lung and plasma, po, 24.3 mg/kg
Description: Ratio of total AUC in lung to plasma in C57BL/6J mouse at 24.3 mg/kg, po and 1.4 mg/kg, iv by UPLC-MS/MS analysis

[34] = in vivo; conditions: C57BL/6J, mouse, po, 24.8 mg/kg
Description: Half life in C57BL/6J mouse at 24.8 mg/kg, po and 1.8 mg/kg, iv by LC-MS/MS analysis

[35] = in vivo; conditions: C57BL/6J, mouse, po, 24.8 mg/kg; remark: listed apart in the source
Description: Oral absorption in C57BL/6J mouse at 24.8 mg/kg by LC-MS/MS analysis

[36] = in vivo; conditions: C57BL/6J, mouse, po, 24.8 mg/kg; remark: listed apart in the source
Description: Oral availability in C57BL/6J mouse at 24.8 mg/kg by LC-MS/MS analysis

[37] = in vivo; conditions: C57BL/6J, mouse, po, 24.8 mg/kg; remark: listed apart in the source
Description: Total Cmax in C57BL/6J mouse plasma at 24.8 mg/kg, po and 1.8 mg/kg, iv by LC-MS/MS analysis

[38] = in vivo; conditions: C57BL/6J, mouse, po, 24.8 mg/kg; remark: listed apart in the source
Description: Total AUC last in C57BL/6J mouse plasma at 24.8 mg/kg, po and 1.8 mg/kg, iv by LC-MS/MS analysis

[39] = in vivo; conditions: C57BL/6J, mouse, po, 24.8 mg/kg; remark: listed apart in the source
Description: Total Cmax in C57BL/6J mouse lungs at 24.8 mg/kg, po and 1.8 mg/kg, iv by LC-MS/MS analysis

[40] = in vivo; conditions: C57BL/6J, mouse, po, 24.8 mg/kg; remark: listed apart in the source
Description: Total AUC last in C57BL/6J mouse lungs at 24.8 mg/kg, po and 1.8 mg/kg, iv by LC-MS/MS analysis

Sequence of Lysophosphatidic acid receptor 2 (Homo sapiens, UniProt Q9HBW0) (Q9HBW0 whole entry): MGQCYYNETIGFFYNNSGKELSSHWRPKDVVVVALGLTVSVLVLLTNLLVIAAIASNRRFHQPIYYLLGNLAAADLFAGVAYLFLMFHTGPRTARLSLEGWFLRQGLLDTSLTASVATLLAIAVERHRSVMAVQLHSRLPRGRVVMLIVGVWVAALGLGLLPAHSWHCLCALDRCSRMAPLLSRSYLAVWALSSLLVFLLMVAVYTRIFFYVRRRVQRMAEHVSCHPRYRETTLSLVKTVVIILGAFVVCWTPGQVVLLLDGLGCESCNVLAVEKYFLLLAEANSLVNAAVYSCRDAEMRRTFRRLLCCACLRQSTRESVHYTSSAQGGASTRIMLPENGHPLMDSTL
Sequence of Lysophosphatidic acid receptor 1 (Q92633 whole entry): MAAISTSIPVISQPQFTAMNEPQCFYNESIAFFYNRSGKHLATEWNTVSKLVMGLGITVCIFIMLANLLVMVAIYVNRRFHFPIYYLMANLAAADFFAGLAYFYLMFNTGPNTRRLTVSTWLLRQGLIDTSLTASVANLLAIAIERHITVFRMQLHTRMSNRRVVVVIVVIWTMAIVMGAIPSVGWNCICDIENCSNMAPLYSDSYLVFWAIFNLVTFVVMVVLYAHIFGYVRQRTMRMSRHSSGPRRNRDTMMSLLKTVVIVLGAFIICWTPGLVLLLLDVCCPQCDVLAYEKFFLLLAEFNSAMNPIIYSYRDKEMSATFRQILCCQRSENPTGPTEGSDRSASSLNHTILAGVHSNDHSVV
T1 sequence (Q9JL06 whole entry): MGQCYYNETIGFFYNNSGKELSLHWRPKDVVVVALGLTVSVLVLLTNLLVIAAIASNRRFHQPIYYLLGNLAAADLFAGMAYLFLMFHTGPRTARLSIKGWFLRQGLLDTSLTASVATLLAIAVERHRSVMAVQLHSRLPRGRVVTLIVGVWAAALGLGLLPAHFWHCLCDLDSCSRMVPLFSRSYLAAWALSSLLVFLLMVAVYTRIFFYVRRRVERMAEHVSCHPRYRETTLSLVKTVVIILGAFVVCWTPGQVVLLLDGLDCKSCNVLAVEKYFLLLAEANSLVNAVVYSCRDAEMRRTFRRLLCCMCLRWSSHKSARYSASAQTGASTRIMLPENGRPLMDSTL
Sequence of Lysophosphatidic acid receptor 4 (Q99677 whole entry): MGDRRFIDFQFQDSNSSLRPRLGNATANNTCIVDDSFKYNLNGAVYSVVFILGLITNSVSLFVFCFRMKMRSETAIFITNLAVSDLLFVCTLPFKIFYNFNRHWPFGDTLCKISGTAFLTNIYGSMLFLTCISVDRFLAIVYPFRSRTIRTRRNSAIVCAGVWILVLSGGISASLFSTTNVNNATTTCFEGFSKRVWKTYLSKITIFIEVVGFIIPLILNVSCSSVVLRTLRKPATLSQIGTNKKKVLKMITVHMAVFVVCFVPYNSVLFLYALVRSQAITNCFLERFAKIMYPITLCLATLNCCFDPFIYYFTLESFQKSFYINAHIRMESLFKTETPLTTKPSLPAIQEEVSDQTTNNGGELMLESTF
Sequence of Lysophosphatidic acid receptor 5 (Q9H1C0 whole entry): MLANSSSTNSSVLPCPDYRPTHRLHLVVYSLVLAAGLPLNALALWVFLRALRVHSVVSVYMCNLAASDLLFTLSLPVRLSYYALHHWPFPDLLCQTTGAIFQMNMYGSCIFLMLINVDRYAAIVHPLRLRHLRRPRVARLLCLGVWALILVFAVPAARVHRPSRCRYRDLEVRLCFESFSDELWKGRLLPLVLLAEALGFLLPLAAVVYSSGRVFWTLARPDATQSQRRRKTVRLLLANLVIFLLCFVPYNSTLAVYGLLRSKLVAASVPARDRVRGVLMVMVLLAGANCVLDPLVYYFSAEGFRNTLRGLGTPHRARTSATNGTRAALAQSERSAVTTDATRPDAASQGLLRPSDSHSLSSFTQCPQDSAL

| Structure (SMILES) | IC50 ([1]; read-out: pIC50 (converted)) [nM] | efflux ratio at 1 h, 10 µM [2] | fraction unbound at 5 h, 0.5 µM [3] | fraction unbound at 5 h, 0.5 µM [4] | fraction unbound at 5 h, 5 µM [5] | Papp A→B at 1 h, 10 µM [7] [×10⁻⁶ cm/s] | Papp B→A at 1 h, 10 µM [8] [×10⁻⁶ cm/s] | IC50 [9] [nM] | IC50 [11] [nM] | IC50 [12] [nM] | IC50 [13] [nM] | microsomal CLint at 0.75 h, 0.5 µM [16] [µL/min/mg] | microsomal CLint at 0.75 h, 0.5 µM [17] [µL/min/mg] | also measured |
| --- | --- | --- | --- | --- | --- | --- | --- | --- | --- | --- | --- | --- | --- | --- |
| Cc1csc2c(N[C@@H](C)CN3CCN(S(=O)(=O)c4ccc(Cl)c(Cl)c4)CC3)ncnc12 | 295 | 1 | 0.004 | 0.0065 | 0.001 | 0.89 | 0.91 | 676 | 9770 | 38900 | 6310 | 758 | > 759 | half-life [6]: 1 h; IC50 [10]: 324 nM; IC50 [14]: > 50100 nM; bioavailability [15]: 0.23% |
| COC(=O)Nc1nc(C)c(S(=O)(=O)N2CCN(C[C@H](C)Nc3ncnc4c(-c5ccc(C)nc5)cccc34)CC2)s1 | 4.17 | 5.7 | < 0.01 | 0.0011 | 0.0175 |  |  | 2.45 | > 50100 |  |  | 34 | 49 | half-life [18]: 1.67 h; Fa [19]: 97%; bioavailability [20]: 87%; Cmax [21]: 71500 ng/mL; AUC(0-t) [22]: 280 µg·h/mL; Cmax [23]: 15400 ng/mL; AUC(0-t) [24]: 50.5 µg·h/mL |
| COC(=O)Nc1nc(C)c(S(=O)(=O)N2CCN(C[C@H](C)Nc3ncnc4c(C)csc34)CC2)s1 |  | 1.7 | < 0.01 | 0.0023 | 0.0385 | 8.12 | 13.5 | 479 | > 50100 | > 50100 | 24000 | 80 | 156 | IC50 ([1]; read-out: IC50): 7080 nM; clearance [25]: 0.82 mL/min/kg; half-life [26]: 2.17 h; Fa [27]: 91%; bioavailability [28]: 85%; Cmax [29]: 91300 ng/mL; AUC(0-t) [30]: 435 µg·h/mL; Cmax [31]: 25300 ng/mL; AUC(0-t) [32]: 119 µg·h/mL; Kp [33]: 0.27 |
| COC(=O)Nc1nc(C)c(S(=O)(=O)N2CCN(C[C@H](C)Nc3ncnc4c(-c5cn(C)nc5C(F)(F)F)cccc34)CC2)s1 | 2.04 | 2.9 | < 0.01 | 0.0015 | 0.0122 | 2.23 | 6.41 | 0.347 | > 50100 |  |  | 52 | 125 | half-life [34]: 1.69 h; Fa [35]: 100%; bioavailability [36]: 89%; Cmax [37]: 70100 ng/mL; AUC(0-t) [38]: 418 µg·h/mL; Cmax [39]: 19000 ng/mL; AUC(0-t) [40]: 78 µg·h/mL |
